Data on four molecules can be found in patent EP4781993A1, “ANTIBACTERIAL COMPOSITION AND ANTIBACTERIAL DRUG” (Shenzhen China Resources Gosun Pharmaceuticals Co., Ltd., priority 2023, dated 2025).

Where a name gives a salt, the structure may show the parent alone.

In general, MIC50 refers to an inhibitory concentration at the 50% level, which refers to growth in some studies and to a panel of isolates in others. A word on the MIC90: it is an inhibitory concentration at the 90% level, which refers to growth in some studies and to a panel of isolates in others.

The test system of assay [1] is KPC-2 producing Klebsiella pneumoniae. As to the kind of experiment: Broth-microdilution MIC (CLSI M07-A11) against clinical isolates. The format is cell-based. The note with it: for MIC50 / MIC90: Klebsiella pneumoniae; for MIC50 / MIC90 / Mode / MIC range: 12 strains; for MIC50 / MIC90 / MIC range: MIC = ceftobiprole concentration (groups A2, B2, C2, D2, E2: inhibitor alone); for MIC50: read-out: MIC50; for MIC90: read-out: MIC90; for Mode: mode of MIC; for antibacterial activity: verdict in words. The source says: (§1) As recommended by CLSI (Clinical and Laboratory Standards Institute) M07-A11 (2018 edition), the Broth-microdilution method is adopted to determine the minimum inhibitory concentration (MIC) of ceftobiprole and zidebactam against clinical isolates. It should be noted that, in the present disclosure, MIC50 refers to the minimum drug concentration that inhibits the growth of 50% of the tested bacteria, and MIC90 refers to the minimum drug concentration that inhibits the growth of 90% of the tested bacteria.
(§2) Antibacterial drug: ceftobiprole, manufacturer: Shenyang Sanjiu Pharmaceutical, content: 92.1%, batch number: YF/BALP141/000. Zidebactam, manufacturer: Target M01 company, batch number: 149661. Zidebactam, as described above, the English name is Zidebactam, and the chemical name is: (2S,5R)-7-oxo-2-(2-((R)-piperidine-3-carbonyl)hydrazine-1-carbonyl)-1,6-diazabicyclo[3.2.1]octan-6-yl hydrogen sulfate.
(§3) Tested strains: a total of 24 genotypic strains producing KPC or OXA β-lactamase. Specifically, the tested strains include 24 strains of Klebsiella pneumoniae, including 12 KPC-2 producing strains and 12 OXA-232 producing strains.
(§4) Quality control strains: Escherichia coli ATCC 25922, (KPC-2 producing) Klebsiella pneumoniae ATCC BAA-1705, and (NDM-1 producing) Klebsiella pneumoniae ATCC BAA-2146.
(§5) Medium: cation-adjusted Mueller-Hinton broth (CAMHB), a product of BBL Company, USA.
(§6) Inoculum size: Pure isolated colonies were adjusted with normal saline to 0.5 McFarland turbidity. After appropriate dilution, the suspension was added to the wells of a 96-well U-bottom microplate (containing 50 µL antibacterial drug solution). The inoculum size was 5 × 10^5 CFU/mL.
(§7) Culture conditions: air environment, 35°C ± 2°C, 16 to 20 hours.
(§8) Preparation of Antibacterial Drug Solution : Ceftobiprole and zidebactam were taken separately, dissolution and dilution were performed according to the antibacterial drug reference to the CLSI standards and the drug package insert, A1 to A6, a total of 6 groups of antibacterial drug solutions, were prepared, among which, group A1 was the control group containing solely the single agent ceftobiprole, and group A2 was the control group containing solely the single agent zidebactam. Different antibacterial drug solutions with ceftobiprole concentrations ranging from 128 mg/L to 0.06 mg/L were respectively included in groups A1 and A3 to A6, and different antibacterial drug solutions with zidebactam concentrations ranging from 128 mg/L to 0.06 mg/L were included in group A2. The specific concentrations within the range of 128 mg/L to 0.06 mg/L in groups A1 to A6 were respectively 128 mg/L, 64 mg/L, 32 mg/L, 16 mg/L, 8 mg/L, 4 mg/L, 2 mg/L, 1 mg/L, 0.5 mg/L, 0.25 mg/L, 0.125 mg/L, or 0.06 mg/L, respectively. Table 1. Concentrations of ceftobiprole/zidebactam contained in the antibacterial drug solutions of groups A1 to A6
(§9) Experimental results: Currently, there are no established CLSI or EUCAST breakpoints for ceftobiprole/β-lactamase inhibitor. Therefore, the antibacterial activity of ceftobiprole/β-lactamase inhibitor is evaluated in accordance with the standards for ceftobiprole. WHONET 5.6 software is used to perform statistical analysis on the results of antibacterial susceptibility test. The fractional inhibitory concentration index (FIC) for the combination of ceftobiprole and zidebactam is calculated according to Equation (1). FIC index = (MIC of drug A in combination)/(MIC of drug A alone) + (MIC of drug B in combination)/(MIC of drug B alone) [formula]
(§10) In Equation (1), drug A is ceftobiprole, and drug B is zidebactam. […] Table 2. In vitro antibacterial activity of ceftobiprole/zidebactam against the tested bacteria in Example 1 […]
For orientation: Dilution methods test growth across graded concentrations, often in twofold steps.

The subject of assay [2] is OXA-232 producing Klebsiella pneumoniae. The description is as above. It is filed as cell-based. The note with it: for MIC50 / MIC90: Klebsiella pneumoniae; for MIC50 / MIC90 / Mode / MIC range: 12 strains; for MIC50 / MIC90 / MIC range: MIC = ceftobiprole concentration (groups A2, B2, C2, D2, E2: inhibitor alone); for Mode: mode of MIC; for antibacterial activity: verdict in words.
From the text: as §1, §2, §3, §4, §5, §6, §7, §8, §9, §10

Take `O=C(NC1CCNCC1)[C@@H]1CC[C@@H]2CN1C(=O)N2OS(=O)(=O)O` [Group C2, (1R,2S,5R)-7-oxo-2-(piperidin-4-ylcarbamoyl)-1,6-diazabicyclo[3.2.1]octan-6-yl hydrogen sulfate]: in assay [1], the MIC50 is more than 128 µg/mL, the MIC90 is more than 128 µg/mL, the Mode is given as more than 128 mg/L and the antibacterial activity result is given as “no antibacterial activity”. Besides, in assay [1] (MIC 128 mg/L), the “Cumulative inhibition rate (%)” value is 25%, the “Cumulative number of strains” value was 3 and the Number of strains is 3. Moreover, in assay [1] (MIC >128 mg/L), the “Cumulative inhibition rate (%)” value is recorded as 100%, the “Cumulative number of strains” value turned out to be 12 and the Number of strains was found to be 9. In addition, in assay [2], the MIC50 is more than 128 µg/mL, the MIC90 was more than 128 µg/mL, the Mode was more than 128 mg/L and the antibacterial activity entry is recorded as “no antibacterial activity”. In assay [2] (MIC 128 mg/L), the “Cumulative inhibition rate (%)” value is reported as 41.7%, the “Cumulative number of strains” value is recorded as 5 and the Number of strains was determined as 5. In assay [2] (MIC >128 mg/L), the “Cumulative inhibition rate (%)” value was determined as 100%, the “Cumulative number of strains” value came out at 12 and the Number of strains came to 7.

For the molecule `NCCN[C@H]1CC[C@H](CC(=O)N[C@H]2Cc3cccc(C(=O)O)c3OB2O)CC1` [Group D2, (R)-3-(2-((1r,4R)-4-((2-aminoethyl)amino)cyclohexyl)acetamido)-2-hydroxy-3,4-dihydro-2H-benzo[e][1,2]oxaborinine-8-carboxylic acid], in assay [1], the MIC range was more than 128 µg/mL, the MIC50 is more than 128 µg/mL, the MIC90 was more than 128 µg/mL and the Mode is more than 128 mg/L. In addition, the antibacterial activity entry in assay [1] is “no antibacterial activity”. Moreover, in assay [1] (MIC >128 mg/L), the “Cumulative inhibition rate (%)” value turned out to be 100%, the “Cumulative number of strains” value came out at 12 and the Number of strains came out at 12. Moreover, in assay [2], the MIC range was more than 128 µg/mL, the MIC50 was more than 128 µg/mL, the MIC90 is more than 128 µg/mL and the Mode was more than 128 mg/L. For the same molecule, the antibacterial activity result in assay [2] was “no antibacterial activity”. Further, in assay [2] (MIC >128 mg/L), the “Cumulative inhibition rate (%)” value was determined as 100%, the “Cumulative number of strains” value came to 12 and the Number of strains was determined as 12.

On to `C[n+]1ccn(C[C@@]2(C)[C@H](C(=O)[O-])N3C(=O)C[C@H]3S2(=O)=O)n1` [Group E2, (2S,3S,5R)-3-methyl-3-[(3-methyltriazol-3-ium-1-yl)methyl]-4,4,7-trioxo-4-amino-6-thia-1-azabicyclo[3.2.0]heptane-2-carboxylate], for which, in assay [1], the MIC range is more than 128 µg/mL, the MIC50 was not below 128 µg/mL, the MIC90 was not below 128 µg/mL and the Mode was more than 128 mg/L. Besides, the antibacterial activity entry in assay [1] is given as “no antibacterial activity”. Besides, in assay [1] (MIC >128 mg/L), the “Cumulative inhibition rate (%)” value was 100%, the “Cumulative number of strains” value amounted to 12 and the Number of strains is 12. In addition, in assay [2], the MIC range is more than 128 µg/mL, the MIC50 is not below 128 µg/mL, the MIC90 was not below 128 µg/mL and the Mode is more than 128 mg/L. The antibacterial activity entry in assay [2] is listed as “no antibacterial activity”. For the same molecule, in assay [2] (MIC >128 mg/L), the “Cumulative inhibition rate (%)” value is listed as 100%, the “Cumulative number of strains” value turned out to be 12 and the Number of strains amounted to 12.

Consider “(3R,6S)-2-hydroxy-3-[[2-(2-thienyl)acetyl]amino]-1,2-oxaborinane-6-acetic acid [Group B2]”, for which, in assay [1], the MIC range was more than 128 µg/mL, the Mode is reported as more than 128 mg/L and the antibacterial activity result was “no antibacterial activity”. Moreover, in assay [1] (MIC >128 mg/L), the “Cumulative inhibition rate (%)” value is 100%, the “Cumulative number of strains” value came out at 12 and the Number of strains is 12. Besides, in assay [2], the MIC range was more than 128 µg/mL, the Mode was more than 128 mg/L and the antibacterial activity entry is “no antibacterial activity”. In assay [2] (MIC >128 mg/L), the “Cumulative inhibition rate (%)” value was determined as 100%, the “Cumulative number of strains” value is 12 and the Number of strains is recorded as 12.
